# “Also recorded” adds a separate entry of the source. Where two headings read alike, the source gives them in different places.
# Tests used:
# scleral collagen fibers = test system: scleral collagen fibers
# Procedure: After experimental intervention and eye parameter measurement, the eyeball was excised from the C57BL6J mouse. For transmission electron microscopic observation, the eyeball of the mouse was fixed in ice-cooled 2.5% glutaraldehyde in PBS for 1 hour, and then was cut along the sagittal plane. The cornea and the lens were excised, and the remaining tissue was further fixed in 2.5% glutaraldehyde/60 mM HEPES buffer (pH 7.4) overnight. The resultant specimen was washed with 60 mM HEPES buffer, and was then incubated in 1% tetroxide osmium/60 mM HEPES buffer at 4° C. for 2 hours, and the resultant was dehydrated through ethanol series, exchanged and embedded in Epon 812 (EM Japan, Tokyo, Japan). After the embedding, the resultant block was sliced into 70 nm, and stained with uranyl acetate and lead citrate. The resultant section was visualized with JEM-1400Plus (JEOL LTD., Tokyo, Japan).
# The sclera is a tissue mainly containing collagen, and it is said that collagen fiber narrowing is involved in scleral thinning (see Non Patent Literature 5).
# myopia-induced mouse [1] = settings: 2% 4-PBA eye-dropped every day after myopia induction
# Procedure: A solution of 2% sodium phenylbutyrate in PBS (4-PBA) was eye-dropped to both eyes of a myopia induced mouse once a day every day in the evening for 10 days after completing the myopia induction period corresponding to human adulthood. It is noted that administration schedule during the myopia induction period (LIM) and after completing the period is schematically illustrated in FIG. 11.
# It was evaluated whether or not axial elongation is inhibited by eyedrop administration of 4-PBA after the myopia induction period (6 weeks old to 8 weeks old), namely, in a period, corresponding to adulthood in a human, when a posterior segment eye disorder is caused by scleral thinning (FIG. 11) differently from the eyedrop administration in the myopia induction period (3 weeks old to 6 weeks old) in a mouse model simulating myopia progression in childhood as described in Patent Literature 1.
# [2] = for 4-PBA Concentration, Choroid / 4-PBA Concentration, Plasma / 4-PBA Concentration, Retina (right) / 4-PBA Concentration, Sclera: 200 mg/kg intraperitoneally for 1 week
# Procedure: Pharmacokinetics in the eye tissue obtained by systemic administration of 4-PBA was confirmed. A specific test method was as follows.
# 4-PBA (200 mg/kg) was intraperitoneally administered for 1 week. One hour after the last administration, the eyeball was excised, and respective tissues were separated. Tissues from 16 mice (32eyeballs) were pooled to be used as 1 sample, and frozen with liquid nitrogen to be stored until measurement. Before the measurement by LC-MS/MS, a 9-fold weight of methanol/water (1:1, v/v) was added thereto for homogenization, and the resultant was centrifuged (10000×g, 4°° C., 5 minutes) to use a supernatant in analysis.
# As a standard reagent, 4-phenylbutyric acid (Tokyo Chemical Industry Co., Ltd.) was used, and LC-MS/MS (LC-20AD system: Shimadzu Corporation, API4000: SCIEX, Tokyo, Japan), and HPLC column, Atlantis dc18 (5 μm, 2.1 mm ID×150 mm, Waters) were used. As a mobile phase, formic acid/water (1:10000, v/v) and acetonitrile were used, and during the analysis, the gradient of each mobile phase was maintained at 50%. A sample injection amount was set to 10 μL, a column temperature was set to 50° C., and a flow rate was set to 0.2 mL/min.
# As mass spectrometry (MS) conditions, negative mode electrospray ionization (ESI) was employed, and ion was measured by multiple reaction monitoring (MRM).
# collagen 1A1 (COL1A1) = settings: 2% 4-PBA eyedrop
# Procedure: A protein (10 μg/well) of the sclera was separated by SDS-PAGE, transferred onto a PVDF membrane (Merck Millipore, MA, USA), blocked with Blocking One (Nacalai Tesque, Tokyo), and incubated together with anti-ATF6 (BioAcademia), phosphorylation-IRE1 (Ser724, Abcam, Cambridge, UL), IRE1, phosphorylation-eIF2α, eIF2α, and β-actin (Cell Signaling Technologies Japan, Tokyo, Japan) antibodies at 4° C. overnight. The resultant membrane was incubated with an appropriate HRP-bound secondary antibody, and the resultant was visualized with EzWestLumi plus (ATTA, Tokyo, Japan). SDS-PAGE was performed in a 10% acrylamide gel with a protein size marker (Magic Mark XP Western Protein Standard, ThermoFisher Scientific). The concentration measurement and analysis was performed using Image J software.
# (§1) Quantitative real-time PCR was performed using StepOnePlus Realtime PCR system with PowerUp SYBR Green Master Mix (Applied Biosystems, CA, USA). Expression level was standardized using B-actin.
# 4-PBA was administered by eyedrop to a mouse myopia induction model to confirm its influence on collagen 1A1 (COL1A1) and the like corresponding to principal collagens for maintaining the shape of the eyeball. A specific test method was as follows.
# PBS (Veh) or 2% 4-PBA was eye-dropped to a myopia-induced mouse, and collagen 1A1 in the sclera (n=7) was evaluated by Western blotting method, and expression of collagen-related mRNA was evaluated by quantitative PCR.
# [3] = test system: PERK pathway and ATF6 pathway
# Procedure: (§2) A solution of sodium phenylbutyrate in PBS (4-PBA; 200 mg/kg) or tauroursodeoxycholic acid (TUDCA; 100 mg/kg) was intraperitoneally injected (i.p.) every day during the myopia induction period.
# as §1
# [4] = test system: myopia-induced juvenile mouse; settings: -30 D lens wearing group
# Procedure: It was examined whether or not a difference in the dosage form of 4-PBA affects the change in the lens. In accordance with the description given above in “Experimental Method”, 4-PBA was eye-dropped or intraperitoneally administered to a myopia-induced juvenile mouse, and the thickness of the lens was measured with SD-OCT in the same manner as in the measurement of the axial length.
# myopia-induced mouse [5] = assay: Intraperitoneal injection of 4-PBA or TUDCA during myopia induction in mouse: axial elongation and refraction (Test Example 3)
# Procedure: Specifically, a myopia-induced mouse is produced as follows. It is noted that myopia induction, and measurement of an axial length and refraction were performed by methods similar to those described in Non Patent Literatures 6 and 7. First, a male C57BL6J mouse was put in a standard transparent cage under a 12/12 h light/dark cycle in a temperature controlled clean room. The animal was allowed to free access to standard feed and autoclaved tap water. A 3-week-old mouse immediately after weaning was anesthetized with a mixed anesthetic of three anesthetics, that is, Domitor (Nippon Zenyaku Kogyo Co., Ltd.), Butorphanol (Meiji Seika Pharma Co., Ltd.), and Midazolam (Sandoz K. K.), and the skull was exposed with scissors. As illustrated in FIG. 1(b), a post was provided to stand on the skull, and fixed with dental cements (Super-Bond, Sun Medical Company, Ltd.). The post was provided with a screw thread so that an adjustor described below could be fixed thereon with a nut.
# For inducing myopia, a minus lens having a power of −30 diopters (D) (Rainbow Contact, RAINBOW OPTICAL LABORATORY CO., LTD.) was worn on the right eye (myopia-induced eye), and a lens having a power of 0 D or only a frame was worn as a control on the left eye (control eye). […] The protector used here was attached to be integral with the frame portion, but the protector needs not be integral with the lens as long as the lens is not damaged by the behavior of the mouse.
# Sodium phenylbutyrate (Cayman Chemical, MI, USA) and tauroursodeoxycholic acid (Sigma Aldrich, Tokyo, Japan) were dissolved in PBS. STF080310 (Selleck Biotech, Tokyo, Japan) or 4μ8C (Selleck Biotech) of an IRE1 inhibitor, GSK2656157 (Selleck Biotech) or GSK2606414 (Selleck Biotech) of a PERK inhibitor, and Nelfinavir Mesylate hydrate (Tokyo Chemical Industry Co., Ltd.) or Ceapin-A7 (Sigma Aldrich) of an ATF6 inhibitor were dissolved in DMSO, and the resultant was diluted to 1:1000 with PBS to be used in an eyedrop test.
# as §2
# myopia-induced mouse [6] = assay: Eyedrop administration of UPR inhibitors during myopia induction in mouse: axial elongation and refraction (Test Example 2); assay type: in vivo; settings: eyedrop once a day for 10 days during myopia induction; 100 μM each (STF 60 μM); -30 D lens eye
# Procedure: Specifically, a myopia-induced mouse is produced as follows.
# During the myopia induction, 60 μM STF080312 (STF), 100 μM 4μ8C (4μ8C), 100 μM GSK2656157 (GSK), 100 μM GSK2606414 (GSK2606414), 100 μM Nelfinavir Mesylate hydrate (NFV), or 100μM Ceapin-A7 (Ceapin) was eye-dropped to both eyes once a day every day in the evening for 10 days.
# It is said that increase of expression of URP gene pathway is a cause of pathologic axial elongation and scleral thinning in high myopia (Patent Literature 1). Therefore, in this Test Example 2, it was evaluated, in the sclera of a myopia-induced mouse in which scleral thinning had been caused, how the phenotype of axial elongation was affected by a known URP gene inhibitor. It is noted that GSK2656157 (GSK) and GSK2606414 were used as the PERK inhibitor, Nelfinavir Mesylate hydrate (NFV) and Ceapin-A7 were used as the ATF6 inhibitor, and STF080312 (STF) and 4μ8C were used as the IRE1 inhibitor (FIG. 4).
# In accordance with the test method described above, the axial elongation caused in using each of the various gene inhibitors in a myopia-induced mouse was evaluated (FIG. 4).
# FIGS. 5a and 5b illustrate axial elongation (a) and refraction change (b) obtained after eyedrop administration of 60 μM STF, 100 μM GSK, or 100 μM NFV once a day for 10 days during the myopia induction period of the mouse. Besides, FIGS. 5c and 5d illustrate axial elongation (a) and refraction change (b) obtained after similarly eyedrop administration of a combination of these inhibitors (STF+GSK:S+G, GSK+NFV:G+N, NFV+STF:N+S, or STF+GSK+NTF:S+G+N). Besides, FIG. 6 illustrates axial elongation (a) and refraction change (b) obtained after similarly eyedrop administration of 100 μM GSK2606414, Ceapin-A7, or 4μ8C.
# [7] = 4-PBA 200 mg/kg/day intraperitoneal injection, 1st week and 3rd week of myopia induction (LIM)
# [8] = TUDCA 100 mg/kg intraperitoneal injection during myopia induction
molecule,measurement,setting,value
sodium phenylbutyrate [4-PBA],narrowing of collagen fibers in the sclera,"scleral collagen fibers; 4-PBA administered every day over the myopia-induced period, TEM, FIG. 10a",the narrowing of collagen fibers in the sclera was inhibited
same,scleral collagen fiber cross-sectional area profile,"scleral collagen fibers; eyedrop administration of 2% 4-PBA, FIG. 10b",the area profile was restored to the original one
same,myopic refraction after completing the myopia induction,myopia-induced mouse [1],tended to be inhibited
same,adulthood axial elongation after completing the myopia induction,myopia-induced mouse [1]; 1st and 3rd weeks,tended to inhibit
same,"4-PBA Concentration, Choroid",[2]; 15 min after administration,348 ng/g or ng/mL
same,"4-PBA Concentration, Plasma",[2]; 15 min after administration,394 ng/g or ng/mL
same,"4-PBA Concentration, Retina (right)",[2]; 15 min after administration,349 ng/g or ng/mL
same,"4-PBA Concentration, Sclera",[2]; 15 min after administration,203 ng/g or ng/mL
same,"4-PBA Concentration, Choroid",[2]; 30 min after administration,117 ng/g or ng/mL
same,"4-PBA Concentration, Plasma",[2]; 30 min after administration,186 ng/g or ng/mL
same,"4-PBA Concentration, Retina (right)",[2]; 30 min after administration,88.2 ng/g or ng/mL
same,"4-PBA Concentration, Sclera",[2]; 30 min after administration,107 ng/g or ng/mL
same,"4-PBA Concentration, Choroid",[2]; 60 min after administration,76.7 ng/g or ng/mL
same,"4-PBA Concentration, Plasma",[2]; 60 min after administration,76.2 ng/g or ng/mL
same,"4-PBA Concentration, Retina (right)",[2]; 60 min after administration,27.9 ng/g or ng/mL
same,"4-PBA Concentration, Sclera",[2]; 60 min after administration,44.9 ng/g or ng/mL
same,"detection of 4-PBA in the retina, the choroid and the sclera",[2]; intraperitoneally administered,detected
same,collagen 1A1 (COL1A1) protein in the sclera (reduction induced by myopia),collagen 1A1 (COL1A1); Western blotting,can be cancelled
same,collagen 1A1 (COL1A1) mRNA in the sclera (reduction induced by myopia),collagen 1A1 (COL1A1); quantitative PCR,can be cancelled
same,"mRNAs of Col4a3, Col8a2, Col11a2, and Col15a1 in the sclera (increase by myopia induction)",collagen 1A1 (COL1A1); quantitative PCR,the increase was cancelled
same,UPR gene expression in the sclera (increase in myopia induced eyes),"[3]; 4-PBA 200 mg/kg/day administered, quantitative PCR",the increase is inhibited by 4-PBA
same,expression of genes disposed downstream of the PERK pathway and the ATF6 pathway,"[3]; eyedrop administration of 2% 4-PBA, FIG. 7",significantly inhibited
same,lens thickening through myopia induction (LIM),[4]; 4-PBA administered by eyedrop,lens thickening was not caused
same,lens thickening through myopia induction (LIM),[4]; intraperitoneal administration of 4-PBA,did not affect lens thickening
same,axial elongation,myopia-induced mouse [5]; [7],the axial elongation is inhibited
same,myopic refraction,myopia-induced mouse [5]; [7],the myopic refraction is inhibited
"C[C@H](CCC(=O)NCCS(=O)(=O)O)[C@H]1CC[C@H]2[C@@H]3[C@@H](O)C[C@@H]4C[C@H](O)CC[C@]4(C)[C@H]3CC[C@]12C [TUDCA, tauroursodeoxycholic acid]","axial elongation (pathologic, myopia-induced eye)",myopia-induced mouse [5]; [8],pathologic axial elongation alone was inhibited; also recorded: the axial elongation is inhibited
same,myopic refraction,myopia-induced mouse [5]; [8],the myopic refraction is inhibited
same,physiological axial elongation,"myopia-induced mouse [5]; mouse, in vivo",physiological axial elongation was not inhibited
O=C(Nc1cnn(Cc2ccc(C(F)(F)F)cc2C(F)(F)F)c1)c1cc(-c2ccco2)on1 [Ceapin-A7],axial elongation of myopia-induced eye,myopia-induced mouse [6],neither axial elongation nor myopic refraction was inhibited
same,myopic refraction of myopia-induced eye,myopia-induced mouse [6],neither axial elongation nor myopic refraction was inhibited
Cn1cc(-c2ccc3c(c2)CCN3C(=O)Cc2cccc(C(F)(F)F)c2)c2c(N)ncnc21 [GSK2606414],axial elongation of myopia-induced eye,myopia-induced mouse [6],neither axial elongation nor myopic refraction was inhibited
same,myopic refraction of myopia-induced eye,myopia-induced mouse [6],neither axial elongation nor myopic refraction was inhibited
Cc1cc(=O)oc2c(C=O)c(O)ccc12 [4μ8C],axial elongation of myopia-induced eye,myopia-induced mouse [6],neither axial elongation nor myopic refraction was inhibited
same,myopic refraction of myopia-induced eye,myopia-induced mouse [6],neither axial elongation nor myopic refraction was inhibited
